Laboratory results as given in patent US20200276273A1, “METHOD FOR TREATING MYELOID LEUKEMIA” (UNIVERSITY OF MIAMI, priority 2017, published 2020).
Blank lines part the entries; values can stand above or below the molecule they belong to. Starred links: 1 amine or outer side, 2 acyl side, 3 side chain; linkers in the order of their positions; H or OH if unused. Non-standard residues stand in square brackets, D forms with d. Residues, ends and D or L forms follow the SMILES beside them. *: point of attachment. Tyr(Me) = O-methyl-tyrosine, COc1ccc(C[C@H](N[*:1])C(=O)[*:2])cc1; Phe(F5) = N[C@@H](Cc1c(F)c(F)c(F)c(F)c1F)C(=O)O; hArg = N=C(N)NCCCC[C@H](N)C(=O)O; 12Ado = NCCCCCCCCCCCC(=O)O; Nle = CCCC[C@H](N)C(=O)O; Orn = NCCC[C@H](N)C(=O)O; Abu = CC[C@H](N)C(=O)O; PhAc = O=C(Cc1ccccc1)*

Tests used:
[1] = nude mice, 10 μg B.i.d. s.c.
Description: Eight-weeks-old female athymic nude mice (Hsd: Athymic Nude-Foxn1^nu), obtained from Harlan Laboratories, were housed in sterile cages in a temperature-controlled room with a 12-hours light\12-hours dark schedule. Mice were fed autoclaved chow and water ad libitum. Human myelogenous leukemia cells KG-1, KG-1a, K-562 and THP-1 were used in log phase of growth. Xenografts were initiated by subcutaneous (s.c.) injection of 1×10^7 cells into the right flank of nude mice. For each cell line, once tumor reached an appropriate size (approx. 40 mm3), mice were randomly divided into two groups of 15 animals each, which received s.c. injections twice a day into the left flank of, phosphate-buffered saline (PBS) ([…] containing 0.1% DMSO, or MIA-602 at a dose of 10 μg. […] At the end of the experiment, mice were sacrificed under carbon dioxide followed by cervical dislocation. All animal procedures were performed in compliance with the Guide for the Care and Use of Laboratory Animals published by the NIH, and approved by the Animal Care and Use Committee of the University of Miami.

pituitary = details: biological activity on the pituitary; cited from earlier work
KG-1 cells = experiment: Cellular uptake of fluorescently labeled MIA-602; details: 2.5 μM Alexa Fluor 555 labelled peptide, 30 minutes
Description: For the detection of cellular uptake, MIA-602 was conjugated to Alexa Fluor 555 according to the manufacturer's instructions (Alexa Fluor 555 NHS ester, tris(triethylammonium salt, Life Technologies, Carlsbad, Calif.). Cells were incubated with 2.5 μM fluorescently labelled peptide or unconjugated fluorophore for 30 minutes (1×10^6 cells/tube). At the end of incubation, cells were washed 3 times in PBS, fixed in 4% paraformaldehyde, mounted, and imaged as described above. ImageJ software (NIH, Bethesda, Md.) was used to recolor the images, for the purpose of enhancing visual perception of cellular uptake.

[2] = target: GHRH splice variant 1 receptor (human)
[3] = target: GHRH splice variant 1 receptor (human); remark: listed apart in the source
[4] = target: GHRH splice variant 1 receptor (human); remark: listed apart in the source
[5] = 30 days, treated animals vs those bearing no tumors

Molecule: CCCC[C@H](NC(=O)[C@@H](NC(=O)[C@H](CC(=O)O)NC(=O)[C@H](CCC(N)=O)NC(=O)[C@H](CC(C)C)NC(=O)[C@H](CC(C)C)NC(=O)[C@H](CCCN)NC(=O)[C@H](Cc1c[nH]cn1)NC(=O)[C@H](C)NC(=O)[C@H](CO)NC(=O)[C@H](CC(C)C)NC(=O)[C@H](CCC(N)=O)NC(=O)[C@H](CC)NC(=O)[C@H](CC(C)C)NC(=O)[C@@H](NC(=O)[C@H](CCCN)NC(=O)[C@H](Cc1c[nH]cn1)NC(=O)[C@H](Cc1ccc(OC)cc1)NC(=O)[C@H](CCCCNC(=N)N)NC(=O)[C@H](C)NC(=O)[C@@H](NC(=O)[C@H](Cc1c(F)c(F)c(F)c(F)c1F)NC(=O)[C@@H](NC(=O)[C@H](C)NC(=O)[C@H](CC(=O)O)NC(=O)[C@@H](CCCNC(=N)N)NC(=O)[C@H](Cc1ccc(O)cc1)NC(=O)CCCCCCCCCCCNC(=O)Cc1ccccc1)[C@@H](C)CC)[C@@H](C)O)C(C)C)[C@@H](C)CC)C(=O)N[C@H](CCCNC(=N)N)C(=O)N[C@@H](CCCCNC(=N)N)C(N)=O [MIA-602, [PhAc-Ada^0-Tyr^1, D-Arg^2, Fpa5^6, Ala^8, Har^9, Tyr(Me)^10, His^11, Orn^12, Abu^15, His^20, Orn^21, Nle^27, D-Arg^28, Har^29]hGH-RH(1-29)NH2] ({PhAc-12Ado}-Y[dR]DAI[Phe(F5)]TA[hArg]Y(Me)H[Orn]VL[Abu]QLSAH[Orn]LLQDI[Nle][dR][hArg]-NH2)
body weights [1, 5]: No significant differences
weights of various organs (liver, spleen, and kidneys) [1, 5]: No significant differences
macroscopic observation of organs ([1]; after treatment): no differences

Molecule: Tyr-Ala-Asp-Ala-Ile^5-Phe-Thr-Asn-Ser-Tyr^10-Arg-Lys-Val-Leu-Gly^15-Gln-Leu-Ser-Ala-Arg^20-Lys-Leu-Leu-Gln-Asp^25-Ile-Met-Ser-Arg^29-NH2 [GHRH(1-29)]
potency retained relative to native GHRH (pituitary): ≥ 50%

Molecule: fluorescently labeled MIA-602: MIA-602 conjugated to Alexa Fluor 555 for the detection of cellular uptake ({PhAc-12Ado}-Y[dR]DAI[Phe(F5)]TA[hArg][Tyr(Me)]H[Orn]VL[Abu]QLSAH[Orn]LLQDI[Nle][dR][hArg]-NH2; also: Alexa Fluor 555 conjugated via NHS ester, site not given here)
cellular uptake (KG-1 cells): not observed

reduction in cell proliferation (cell count, 5 µM MIA-602, 24 and 48 hours) [2]: 80%
decrease of phosphorylation of Akt (Western blot, 8 h incubation with MIA-602) [4]: 85%
B1: GHRH antagonist MIA-602: [PhAc-Ada^0-Tyr^1, D-Arg^2, Fpa5^6, Ala^8, Har^9, Tyr(Me)^10, His^11, Orn^12, Abu^15, His^20, Orn^21, Nle^27, D-Arg^28, … (peptide)
peptide: {PhAc-12Ado}-Y[dR]DAI[Phe(F5)]TA[hArg][Tyr(Me)]H[Orn]VL[Abu]QLSAH[Orn]LLQDI[Nle][dR][hArg]-NH2
fold-change in expression of cell death-related genes (qPCR array, 24 h MIA-602) [3]: 28.9 fold
